Paper PMC12295927, “Design, Synthesis, and Testing of 1,2,3-Triazolo-Quinobenzothiazine Hybrids for Cytotoxic and Immunomodulatory Activity” (International Journal of Molecular Sciences, 2025)

Assays:
Assay type in all cases: cell-based, Human
[1] = test system: AIFM2 gene; assay: RT-qPCR AIFM2 gene expression in BEAS-2B; conditions: 24 h; for fold induction at 100 µM: Homo sapiens, reference gene RPL41, vs untreated control, read-out: Relative level of expression, AIFM2 gene; for AIFM2 expression increase: 100 μM, compared to control
Method: Real-time polymerase chain reaction was performed for the reference gene RPL41 (ribosomal protein L41) and the tested genes: BCL2, AIFM2, MDM2, IL6 and IL8. […] The BEAS-2B line was selected for the experiment. The expression level of selected genes was measured after 24 h of incubation with the tested substances MJ1–MJ20 at a concentration of 100 μM (Table 3).
The RT-qPCR experiment was performed for the BEAS-2B cell line. In this experiment, the AIFM2 gene was studied and RPL41 was used as reference gene (Figure 16).
(§1) Gene expression studies used quantitative RT-qPCR to assess the effect of the tested quinobenzothiazines (MJ1–MJ20) on the expression of apoptosis-related genes (BCL2, AIFM2, MDM2) and pro-inflammatory cytokines (IL6, IL8) (Table 4).
(§2) BEAS-2B and HCT116 cells were seeded in 6-well plates at 2 × 10^5 cells per well and cultured in RPMI-1640 (BEAS-2B) or DMEM (HCT116) medium supplemented with 10% FBS and 1% penicillin/streptomycin at 37 °C, 5% CO2 and 95% humidity. After 24 h of incubation, the tested compounds were added at a concentration of 100 µM. After 24 h, the medium was removed from the cells, washed with PBS solution, 0.5 mL of trypsin was added per well and after 5 min it was neutralized with medium. The obtained cell suspension was centrifuged for 3 min at 2000 rpm, the supernatant was removed, and the obtained pellet was suspended in 400 µL of phenozol. Samples were frozen at −20 °C and stored until further experiment and RNA isolation.
Total RNA was isolated from cells using the A&A Biotechnology Total RNA Mini kit according to the manufacturer’s protocol. RNA quality and quantity were assessed using a NanoDrop 2000 spectrophotometer at 260/280 nm. Reverse transcription was performed using the protocol (EURx NG dART RT Kit) to obtain cDNA. After incubation, samples were placed in a freezer (−20 °C) and stored until further analysis.
The experiment was performed according to the protocol (Brilliant III Ultra Fast SYBR® Green QPCR Master Mix, Quick Reference Guide for the Bio-Rad CFX96 Real-Time PCR Detection System). RT-qPCR reaction was performed using specific primers for target genes (BCL2, AIFM2, MDM2, IL6, IL8). Gene expression was normalized to the expression of the reference gene RPL41. Reaction profiles and results were performed using Bio-Rad CFX Maestro 1.1 software from Bio-Rad. Analysis and calculations of the results obtained during RT-qPCR were performed using Microsoft Excel.
The results were analyzed using the R = 2^−ΔΔCt method, which allows for determining the relative level of gene expression (R) compared to the control. Each experiment was performed in three technical and biological replicates. RT-qPCR allowed for precise assessment of changes in the expression of genes related to the processes of apoptosis and inflammatory response under the influence of quinobenzothiazines, which allowed for identifying their potential mechanisms of action at the molecular level.

[2] = test system: MDM2 gene; assay: RT-qPCR MDM2 gene expression in HCT116; conditions: HCT116, 100 μM, 24 h, vs untreated control
Method: (§3) In each of the four compound groups: MJ1–MJ5, MJ6–MJ10, MJ11–MJ15, and MJ16–MJ20, one compound was selected based on the best IC50 value and a distinctive gene expression profile (BCL2, MDM2, AIFM2, IL6, IL8).
as §1
as §2, with “The obtained cell suspension was centrifuged for 3 min at 2000 rpm, the supernatant was removed, and the obtained pellet was suspended in 400 µL of phenozol. Samples were frozen at −20 °C and stored until further experiment and RNA isolation.” left out
(§4) Total RNA was isolated from cells using the A&A Biotechnology Total RNA Mini kit according to the manufacturer’s protocol. RNA quality and quantity were assessed using a NanoDrop 2000 spectrophotometer at 260/280 nm. […]
(§5) The results were analyzed using the R = 2^−ΔΔCt method, which allows for determining the relative level of gene expression (R) compared to the control. […]

[3] = test system: AIFM2 gene; assay: RT-qPCR AIFM2 gene expression in HCT116; conditions: HCT116, 100 μM, 24 h, vs untreated control
Method: as §3, §1
as §2, with “The obtained cell suspension was centrifuged for 3 min at 2000 rpm, the supernatant was removed, and the obtained pellet was suspended in 400 µL of phenozol. Samples were frozen at −20 °C and stored until further experiment and RNA isolation.” left out
as §4, §5

[4] = test system: IL6 gene; assay: RT-qPCR IL6 gene expression in HCT116; conditions: HCT116, 100 μM, 24 h, vs untreated control
Method: as §3, §1
as §2, with “The obtained cell suspension was centrifuged for 3 min at 2000 rpm, the supernatant was removed, and the obtained pellet was suspended in 400 µL of phenozol. Samples were frozen at −20 °C and stored until further experiment and RNA isolation.” left out
as §4, §5

[5] = test system: BEAS-2B cells; assay: DAPI staining for nuclear morphology and apoptosis, BEAS-2B; conditions: 100 μM, 24 h
Method: The BEAS-2B, NHDF, HCT116, MCF7, SH-SY5Y, A549 cell lines studied were cultured in DMEM medium supplemented with 10% fetal bovine serum (FBS) and 1% penicillin/streptomycin solution. Cells were seeded at 1 × 10^4 per well in 96-well plates and incubated for 24 h under standard culture conditions: temperature 37 °C, 5% CO2, 95% humidity. After 24 h, compounds from the MJ1–MJ20 group were added to individual wells at different concentrations (6.25 µM, 12.5 µM, 25 µM, 50 µM, 100 µM). The control consisted of cells grown only in medium without the addition of chemical compounds. After 24 h of incubation, cells were observed under a microscope (JuLI™ FL Live fluorescence microscope from NanoEntek, Martinsried, Germany), documenting morphological changes. Observations included visual assessments of confluence, cell shape, arrangement, and interaction with the substrate. The Supplementary Materials include a comprehensive collection of microscopic images showing the morphology of the tested cell lines (BEAS-2B, NHDF, HCT116, MCF7, SH-SY5Y, A549) after 24 h of incubation with compounds MJ1–MJ20. These images illustrate the effects of the compounds on cell shape, density, and adhesion. The images are provided as a separate PDF file for further reference. For apoptosis observations, the samples of BEAS-2B and HCT116 cells were additionally fixed with 4% paraformaldehyde (PFA) after 24 h of incubation with, or without selected compounds (Section 2.6) and DAPI stained for apoptotic bodies visualization (Fluoromount-G™ medium with DAPI dye; Thermo Fisher Scientific, Waltham, MA, USA). The samples were visualized using fluorescent microscopy AXIO IMAGER M1 by ZEISS, DAPI channel and 20x magnification. The percent of counted cells with apoptotic nucleus was defined in comparison to all visualized events.
BEAS-2B and HCT116 cells were seeded into culture plates at 5 × 10^3 cells per well using 0.5 mL of RPMI-1640 medium (for BEAS-2B) or DMEM (for HCT116). The plates were incubated for 24 h at 37 °C in an atmosphere containing 5% CO2. After incubation, the medium was removed and compounds MJ2, MJ8, MJ15, and MJ19 were added in the appropriate medium at a concentration of 100 μM. The plates were incubated for 24 h at 37 °C in an atmosphere containing 5% CO2. After incubation, the medium was removed, and 500 µL of 4% paraformaldehyde (PFA) was added to each well to fix the cells. Incubation continued for 10 min at room temperature. After removal of the PFA, the wells were rinsed with 500 µL of PBS (5 min of incubation) and then with distilled water. The cells were allowed to dry at room temperature. After drying, the cells were stained with DAPI. Observations were made using a fluorescence microscope AXIO IMAGER M1 by ZEISS at 20x magnification.

[6] = test system: IL8 gene; assay: RT-qPCR IL8 gene expression in HCT116; conditions: HCT116, 100 μM, 24 h, vs untreated control
Method: as §3, §1
as §2, with “The obtained cell suspension was centrifuged for 3 min at 2000 rpm, the supernatant was removed, and the obtained pellet was suspended in 400 µL of phenozol. Samples were frozen at −20 °C and stored until further experiment and RNA isolation.” left out
as §4, §5

SMILES | fold induction at 100 µM [1] | Relative level of expression, MDM2 gene [2] | Relative level of expression, AIFM2 gene [3] | Relative level of expression, IL6 gene [4] | Apoptotic changes in cell nuclei (DAPI) [5] | AIFM2 expression increase [1] [fold] | Relative level of expression, IL8 gene [6]
Clc1ccc2c(c1)Sc1cc3ccccc3nc1N2Cc1cn(CSc2ccccc2)nn1 [MJ15, 9-Chloro-6-((1-((phenylthio)methyl)-1H-1,2,3-triazol-4-yl)methyl)-quino[3,2-b]benzo[1,4]thiazine] | 2.6 | 3.73 | 4.94 | 5.56 | no significant apoptotic changes | – | –
CSc1ccc2c(c1)Sc1cc3ccccc3nc1N2Cc1cn(Cc2ccc(C#N)cc2)nn1 [MJ19, 4-((4-((9-Methylthioquino[3,2-b]benzo[1,4]thiazin-6-yl)methyl)-1H-1,2,3-triazol-1-yl)methyl)benzonitrile] | 14.9 | – | – | – | no significant apoptotic changes | 14.9 | –
Fc1ccc2c(c1)Sc1cc3ccccc3nc1N2Cc1cn(Cc2ccc(Cl)cc2)nn1 [MJ8, 9-Fluoro-6-[(1-(4-chlorobenzyl)-1H-1,2,3-triazol-4-yl)methyl]-quino[3,2-b]benzo-[1,4]thiazine] | 4.2 | – | – | 6.55 | no significant apoptotic changes | – | 6.95
Fc1ccc(Cn2cc(CN3c4ccccc4Sc4cc5ccccc5nc43)nn2)cc1 [MJ2, 6-((1-(4-Fluorobenzyl)-1H-1,2,3-triazol-4-yl)methyl)-quino[3,2-b]benzo[1,4]thiazine] | 11.4 | – | – | – | no significant apoptotic changes | 11.4 | –
